From US20070213280A1, “Steroidal Saponins Compound, the Process for Producing the Same and the Use Thereof” (GUILIN INNOVATIVE MEDICINES INVESTMENT LTD., CO., priority 2004, published 2007)
Where a name gives a salt, the structure may show the parent alone.

What was measured:
Rat model of AMI [1] = assay: Rat model of AMI by ligating of coronary artery, PPD and MPD by pouring to stomach (Example 4); type: in vivo, Wistar rats; conditions: for Death rate in operation / Infarction size/whole heart size (%): experiment 2 (repeated), 40 mg/kg by pouring to stomach
Method: (§1) Methods: Rat model of AMI was established by ligating of coronary artery.
(§2) Rat was anaesthetized by 3.5% chloral hydrate (10 mL/kg, by weight), then linking to electric-respirator, scraping off the fur of chest, opening thoracic cavity, exposing cardiac pericardium and then ligating the root of the left anterior descending of coronary artery (LADCA).
12 rats were randomly divided into model control group (physiological saline 5 mL/kg by pouring down throat) and PPD treated group (40 mg/5 mL/kg, by pouring to stomach), 6 rats per group. Rats were administrated one time after ligating, then be executed 24 hours later.
24 rats were randomly divided into model control group (physiological saline 5 mL/kg by pouring to stomach), MPD treated group (40 mg/5 mL/kg, by pouring to stomach) and PPD treated group (40 mg/5 mL/kg, by pouring to stomach). Rats were administrated one time after ligating, then be executed 24 hours later.
(§3) Determining the scope of miocardial infarction (N-BT staining method): quickly taking out the heart from the executed animal, then washing by physiologic saline and dewatering with filter paper, the heart was cut into 5 pieces uniformly from apex of heart to ligating thread, then the pieces were put into N-BT staining solution, keeping in common temperature, avoiding light in 2 minutes. Then measuring the size of each slice, and the size of miocardial infarction (non-staining zone with N-BT) by colorful multimedia patho-image analytical system, total area of ventricular muscle, total area of infarction of ventricular muscle, and the ratio of miocardial infarction size relative to the size of ventricles were measured respectively.

Rat model of AMI [2] = assay: Rat model of AMI by ligating of coronary artery, MPD, PPD and MPD+PPD mixture (Example 5); type: in vivo, Wistar rats; conditions: 40 mg/kg by pouring to stomach, one time after ligating, 24 h, relative to size of ventricles
Method: as §1, §2
33 rats were randomly divided into model control group (physiological saline 5 mL/kg by pouring down throat), MPD treated group (40 mg/5 mL/kg, by pouring to stomach), PPD treated group (40 mg/5 mL/kg, by pouring to stomach) and MPD+PPD treated group (40 mg/5 mL/kg, by pouring to stomach). […]
as §3

[3] = system: acute miocardial infarction caused by ligation of coronary artery; assay: Acute miocardial infarction by coronary artery ligation in canines (Example 3); type: in vivo, Adult hybrid canines; conditions: canine; for Infarction size/heart size (%) / Infarction size/ventricles size (%): n=2
Method: (§4) Methods: Applying the model of acute miocardial infarction caused by ligation of coronary artery, detecting miocardial infarction scope, coronary arterial flow and myocardial consumption of oxygen to observe the curative effect of MPD injection.
Canine was anaesthetized by 3% Pentobarbital Sodium (1 mL/kg), opening the chest, exposing the heart and making up a arcula cordis bed; leading on an epicardial electrode and then ligating the root of the left anterior descending of coronary artery (LADCA). Venous cannula on thigh was administered to inject drug, arterial cannula on cervical and pipe from external jugular vein to vena coronaria sinus were administered, thus the blood was obtained separately and AtV oxygen content were measured.
2.2.3 Six canines were randomly divided into model control group (injecting physiological saline 1 mL/1 kg by femoral vein), positive control group (Diltiazem Hydrochloride solution 0.5 mg/kg) and MPD treated group (20 mg/kg by femoral vein), two canines per group. The data of N-ST, Σ-ST, the blood oxygen content of vena coronaria sinus and artery, and the scope of miocardial infarction of pro-administration were collected after administration at once, and 5, 15, 30, 60, 120, 180 minutes after administration.
Epicardial electrogram: recording the change of N-ST and Σ-ST.
as §3, with “4” for “5”

[4] = system: acute miocardial infarction caused by ligation of coronary artery; assay: Acute miocardial infarction by coronary artery ligation in rats, MPD injection (Example 3); type: in vivo, Wistar rats; conditions: rat, n=10
Method: as §4, §2
2.2.1 Preliminary experiment: twenty rats were randomly divided into model control group (injecting physiological saline 3 mL/kg by vena caudalis) and MPD treated group (40 mg/kg, i.v), ten rats per group.
2.2.2 Repeated experiment: fifty rats were randomly divided into model control group (injecting physiological saline 3 ml/kg by vena caudalis), Di'ao Xinxuekang group (administering 40 mg/kg by intragastric administration), MPD dose-intensive group (80 mg/kg by vena caudalis injection), MPD moderate dose group (40 mg/kg) and MPD low-dose group (20 mg/kg), ten rats per group. Rats were treated after 30 minutes of preparing model successfully, and were executed after 24 hours, and observing the results.
as §3, with “4” for “5”

[5] = 20 mg/kg by femoral vein, 20 mg/kg

Structure (SMILES) | miocardial infarction size/ventricular size (%) (Rat model of AMI [1]; experiment 1, 40 mg/kg by pouring to stomach, one time after ligating, 24 h, n=6, 40 mg/kg) | Death rate in operation (Rat model of AMI [1]) | Infarction size/whole heart size (%) (Rat model of AMI [1]; one time after ligating, 24 h) | infarct size (IS) (%) (Rat model of AMI [2]) | N-ST (epicardial electrogram) comparing with control group ([3]; 20 mg/kg by femoral vein, FIG. 4) | flow of aeteria coronaria comparing with control group ([3]; 20 mg/kg by femoral vein, FIG. 6) | miocardial consumption of oxygen (MCO) comparing with control group ([3]; 20 mg/kg by femoral vein, FIG. 7) | Infarction size/heart size (%) [3, 5] [%] | Infarction size/ventricles size (%) [3, 5] [%] | miocardial infarction size/ventricular size (%) ([4]; preliminary experiment, 40 mg/kg i.v., X ± SD, 40 mg/kg) | miocardial infarction size/ventricular size (%) ([4]; repeated experiment, dose-intensive 80 mg/kg by vena caudalis injection, 24 h) | miocardial infarction size/ventricular size (%) ([4]; repeated experiment, low-dose 20 mg/kg by vena caudalis injection, 24 h, 20 mg/kg) | miocardial infarction size/ventricular size (%) ([4]; repeated experiment, moderate dose 40 mg/kg by vena caudalis injection, 24 h, 40 mg/kg) | Infarction size/heart size (%) ([3]; 0.5 mg/kg) | Infarction size/ventricles size (%) ([3]; 0.5 mg/kg)
CC1=C(CC[C@@H](C)CO[C@@H]2O[C@H](CO)[C@@H](O)[C@H](O)[C@H]2O)O[C@H]2C[C@H]3[C@@H]4CC=C5C[C@@H](O[C@@H]6O[C@H](CO)[C@@H](O[C@@H]7O[C@@H](C)[C@H](O)[C@@H](O)[C@H]7O)[C@H](O)[C@H]6O[C@@H]6O[C@@H](C)[C@H](O)[C@@H](O)[C@H]6O)CC[C@]5(C)[C@H]4CC[C@]3(C)[C@@H]12 [PPD, Pseudoprotodioscin] | 36.25±7.20 | 14.3% (1/7) | 36.31 ± 1.90 | 36.31±1.90 |  |  |  |  |  |  |  |  |  |  | 
CO[C@]1(CC[C@@H](C)CO[C@@H]2O[C@H](CO)[C@@H](O)[C@H](O)[C@H]2O)O[C@H]2C[C@H]3[C@@H]4CC=C5C[C@@H](O[C@@H]6O[C@H](CO)[C@@H](O[C@@H]7O[C@@H](C)[C@H](O)[C@@H](O)[C@H]7O)[C@H](O)[C@H]6O[C@@H]6O[C@@H](C)[C@H](O)[C@@H](O)[C@H]6O)CC[C@]5(C)[C@H]4CC[C@]3(C)[C@H]2[C@@H]1C [MPD, Methylprotodioscin] |  | 0% (0/8) | 33.71 ± 6.73 | 36.24±3.74 | no significant difference | no significant difference | no significant difference | 2.74±0.33 | 7.30±0.97 | 33.4±8.09 | 30.62±9.46 | 37.89±8.41 | 32.32±6.92 |  | 
COc1ccc([C@@H]2Sc3ccccc3N(CCN(C)C)C(=O)[C@@H]2OC(C)=O)cc1 [Diltiazem Hydrochloride, reference compound] |  |  |  |  |  |  |  |  |  |  |  |  |  | 1.81 ± 0.79 | 4.36 ± 1.15
